Assay results: US10052340B2 (XIAMEN UNIVERSITY, priority 2012, dated 2018)

Legend:
[1] = tested on: other detected nuclear receptors; assay: Reporter gene analysis, COS-7 cells cotransfected with other nuclear receptors (PPARs, RORs, GR, PR, RARα, RARβ, PXR, CAR); conditions: 0.5 μM, COS-7, FIG. 2
Experimental: DMEM medium containing 10% fetal bovine serum is used to perform the culture of monkey kidney epithelial cell COS-7 cells, and COS-7 cells are inoculated onto a 24-well plate on the day before transfection with an inoculation density of 5×10^4 cells/well, and transfected on the next day. The transfection is the transient transfection performed using Lipofectamine 2000 (Invitrogen). In the reporter gene analysis experiment, 200 ng of a nuclear receptor full-length expression plasmid or the expression plasmid of the mutant thereof, 200 ng of endogenous promoter reporter gene, and 30 ng of Renilla luciferase expression plasmid are used for cotransfection. 500 μl Opti-MEM is added to each well and cultured for 5 h, followed by adding a ligand medicament diluted in Opti-MEM to reach the corresponding concentration, and treating for 18 h. Various nuclear receptors and the corresponding reporter gene used are as follows: human FXR, EcRE-Luc; human PPARs (α, β, and γ), PPRE-Luc; human RORs (α, β and γ), Pcp2/RORE-Luc; human GR and PR, MMTV-Luc; human RARα and RARβ, and βRE-Luc.
A ligand can be tested for the affinity to FXR since the ligand can induce FXR to recruit coregulators after binding to FXR.

wild-type C57BL/6J mice = assay: Mouse trial, wild-type mice fed with high-fat diet; conditions: 1.3 mg/kg i.p. daily, 14 days
Experimental: (§1) Wild-type C57BL/6J mice of 9-10 weeks old, and FXR gene deletion homozygous mice (FXR^−/−) and diabetes and obesity mouse model mice (KK-Ay) with the same background are used, fed with high-fat diet (Research Diets, D12492), with free access to water, in SPF grade animal room in experimental animal center, Xiamen University. […] Intraperitoneal injection is performed one time at 9 o'clock every morning, continued for 14 days, and the mice are measured for body weight and the food intake every two days. At the end of 14 days, the mice are provided with free access to water, and after being hungry for 6 h, the mouse body weights are measured, and the percentage of the final body weight relative to the initial body weight before the treatment of the injection trial indicates the change of mouse body weight. Then blood is sampled from the eye balls, and sera are obtained by separation. The components in serum are detected by the following kits respectively: sugar-oxidase method (Beijing Applygen); insulin (Crystal Chem. Inc., USA); total cholesterol and cholesterol in high and low density lipoprotein (Bioassay Systems, USA); triglyceride (Beijing Applygen and WAKO Chemicals Inc., Japan); free fatty acids (Bioassay Systems, USA); and aspartate aminotransferase and alanine aminotransferase (Biosino Bio-technology and Science Inc., Beijing, China). Mouse liver is taken, a part of which is fixed with paraformaldehyde, and embedded with paraffin, sectioned, and stained with hematoxylin and eosin, and a part of which is cryopreserved with liquid nitrogen for use in extracting RNA for measuring gene expression with fluorescence quantitative PCR.

FXR F284H = target: T1, FXR F284H (Homo sapiens, UniProt Q96RI1, F298H); assay: Reporter gene analysis with FXR point mutant F284H in COS-7 cells; type: cell-based; conditions: COS-7, EcRE reporter, FIG. 5
T1 construct: the expression plasmid expressing full-length FXR (wt) or with mutations at the corresponding sites; expressed in transfected cells; host or cells: COS-7
Experimental: (§2) (2) The expression vector of FXR with point mutations at key binding sites is obtained. Quick-Change site-directed mutagenesis kit (Stratagene) is used for mutation, and the mutation reaction system is as follows: wild-type plasmid pCMX-FXR (50 ng) of 0.5 μl, mutation primer (100 μM) of 0.2 μl, pfu DNA polymerase (Invitrogen) (2 U) of 1 μl, 10 mM dNTPs of 1 μl, 10× PCR buffer of 5 μl, and ddH2O of 43 μl. PCR procedures are performed as follows: 94° C. for 2 min; 94° C. for 30 s, 55° C. for 1 min, 72° C. for 7 min, 15 cycles. 20 μl PCR product is digested with Dpn I […], followed by taking and transforming 2 μl digestion product into E. coli Trans 109 competent cells, ice bath for 30 min, and heat shock at 42° C. for 30 s. 250 μl of LB liquid medium without antibiotics is added, and preshaken at 225 rpm at 37° C. for 40 min, followed by taking 150 μl of products, spreading same on LB solid medium plates with ampicillin at 100 μg/ml and culturing them at 37° C. overnight. On the next day, the single colony is picked out and placed in 2 ml LB liquid medium containing ampicillin at 100 μg/ml, and cultured at 37° C. overnight. Plasmid extraction is performed on the shaken bacterial solution using Qiagen MiniPrep Plasmid Minipreparation Kit. The plasmid is identified by sequencing.

FXR H447F = target: T2, FXR H447F (Homo sapiens, UniProt Q96RI1, H461F); assay: Reporter gene analysis with FXR point mutant H447F in COS-7 cells; type: cell-based; conditions: COS-7, EcRE reporter, vs wild-type FXR, FIG. 5
T2 construct: the expression plasmid expressing full-length FXR (wt) or with mutations at the corresponding sites; expressed in transfected cells; host or cells: COS-7
T2 sequence (Q96RI1 1-472 isoform Q96RI1-2 H447F): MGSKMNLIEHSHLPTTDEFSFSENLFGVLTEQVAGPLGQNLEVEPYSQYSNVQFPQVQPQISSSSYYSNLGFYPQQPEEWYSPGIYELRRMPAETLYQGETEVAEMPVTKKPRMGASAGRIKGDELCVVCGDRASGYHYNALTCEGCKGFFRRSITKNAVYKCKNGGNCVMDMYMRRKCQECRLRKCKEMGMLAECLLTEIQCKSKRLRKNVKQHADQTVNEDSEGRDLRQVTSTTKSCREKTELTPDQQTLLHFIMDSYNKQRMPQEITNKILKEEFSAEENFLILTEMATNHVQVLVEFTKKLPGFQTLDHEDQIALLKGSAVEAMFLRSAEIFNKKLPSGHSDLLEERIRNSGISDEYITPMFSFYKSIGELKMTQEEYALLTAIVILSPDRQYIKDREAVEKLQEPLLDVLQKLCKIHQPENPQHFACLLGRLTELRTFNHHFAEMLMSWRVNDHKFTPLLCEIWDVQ
Experimental: as §2

[2] = tested on: FXR gene deletion homozygous mice (FXR−/−); assay: Mouse trial, FXR knockout mice fed with high-fat diet; type: in vivo; conditions: 1.3 mg/kg i.p. daily, 14 days
Experimental: as §1

[3] = tested on: wild-type mouse liver cells; assay: LPS induced inflammatory gene expression in wild-type mouse liver cells; type: cell-based; conditions: FIG. 19
Source text: (§3) Ivermectin and LPS are used to treat wild-type and FXR knockout mouse liver cells.

[4] = tested on: FXR knockout mouse liver cells; assay: LPS induced inflammatory gene expression in FXR knockout mouse liver cells; type: cell-based
Source text: as §3

T1 sequence (Q96RI1 1-472 isoform Q96RI1-2 F284H): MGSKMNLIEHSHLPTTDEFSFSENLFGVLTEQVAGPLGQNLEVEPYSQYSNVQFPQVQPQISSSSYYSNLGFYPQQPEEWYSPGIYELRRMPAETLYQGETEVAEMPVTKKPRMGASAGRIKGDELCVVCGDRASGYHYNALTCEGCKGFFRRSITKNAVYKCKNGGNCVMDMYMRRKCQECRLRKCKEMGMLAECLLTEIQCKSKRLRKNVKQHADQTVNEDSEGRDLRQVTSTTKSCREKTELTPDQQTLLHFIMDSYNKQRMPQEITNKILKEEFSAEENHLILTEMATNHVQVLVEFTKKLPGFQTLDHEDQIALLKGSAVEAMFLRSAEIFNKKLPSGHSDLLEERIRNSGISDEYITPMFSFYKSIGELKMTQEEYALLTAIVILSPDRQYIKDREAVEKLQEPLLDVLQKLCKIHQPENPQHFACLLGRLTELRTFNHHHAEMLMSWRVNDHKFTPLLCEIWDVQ

Question: What does the source list for `CC[C@H](C)[C@H]1O[C@]2(CC[C@@H]1C)C[C@@H]1C[C@@H](C/C=C(\C)C(O[C@H]3C[C@H](OC)C(O[C@H]4C[C@H](OC)[C@@H](O)[C@H](C)O4)[C@H](C)O3)[C@@H](C)/C=C/C=C3\CO[C@@H]4[C@H](O)C(C)=CC(C(=O)O1)[C@]34O)O2` (stereo partly shown) [ivermectin]?
Answer: transcriptional activity of the other detected nuclear receptors [1]: does not produce any effect; activity of serum alanine aminotransferase (wild-type C57BL/6J mice; FIG. 11): does not affect the transaminase activity; activity of serum aspartate aminotransferase (wild-type C57BL/6J mice; FIG. 11): does not affect the transaminase activity; liver injury, liver section stained with hematoxylin and eosin (wild-type C57BL/6J mice; FIG. 12): produces no injury to liver cells; cholesterol level in high density lipoprotein (wild-type C57BL/6J mice; high-fat diet): significantly downregulated; cholesterol levels in low density and very low density lipoprotein (wild-type C57BL/6J mice; high-fat diet): downregulated; serum cholesterol level (wild-type C57BL/6J mice; high-fat diet): significantly decreases; serum glucose level (wild-type C57BL/6J mice; high-fat diet): significantly decreases; serum insulin level (wild-type C57BL/6J mice; high-fat diet): significantly decreases; serum triglyceride (Tg) level (wild-type C57BL/6J mice; high-fat diet): significantly decrease; transcriptional activity of FXR mutant F284H (FXR F284H): incapable of activating the transcriptional activity of FXR; transcriptional activity of FXR mutant H447F (FXR H447F): significantly increasing; serum cholesterol level [2]: not producing any significant change; serum glucose level [2]: not producing any significant change; serum insulin level [2]: does not produce any significant change; cholesterol in high density lipoprotein ([2]; FIG. 8): not affected; cholesterol in low density/very low density lipoprotein ([2]; FIG. 8): not affected; expression of IL-6 induced by LPS [3]: clearly inhibit; expression of MIP-1a induced by LPS [3]: clearly inhibit; expression of TNFa induced by LPS [3]: clearly inhibit; expression of iNOS induced by LPS [3]: clearly inhibit; expression of inflammatory factors induced by LPS [4]: no clear change
